This note sets out measurements from patent publication US20220002314A1 (priority 2018, published 2022).

Read-outs that look alike come from different tables or passages of the source.

For test [1], the target named is Human μ-opioid receptor (Homo sapiens, UniProt P35372). Nature of the test: biochemical. The class given is binding.
In test [2] the target is Human α2δ-1 subunit of Cav2.2 calcium channel (Homo sapiens, UniProt P54289). Briefly: biochemical. It is filed as binding.
Sequence of Human α2δ-1 subunit of Cav2.2 calcium channel (P54289 25-1103): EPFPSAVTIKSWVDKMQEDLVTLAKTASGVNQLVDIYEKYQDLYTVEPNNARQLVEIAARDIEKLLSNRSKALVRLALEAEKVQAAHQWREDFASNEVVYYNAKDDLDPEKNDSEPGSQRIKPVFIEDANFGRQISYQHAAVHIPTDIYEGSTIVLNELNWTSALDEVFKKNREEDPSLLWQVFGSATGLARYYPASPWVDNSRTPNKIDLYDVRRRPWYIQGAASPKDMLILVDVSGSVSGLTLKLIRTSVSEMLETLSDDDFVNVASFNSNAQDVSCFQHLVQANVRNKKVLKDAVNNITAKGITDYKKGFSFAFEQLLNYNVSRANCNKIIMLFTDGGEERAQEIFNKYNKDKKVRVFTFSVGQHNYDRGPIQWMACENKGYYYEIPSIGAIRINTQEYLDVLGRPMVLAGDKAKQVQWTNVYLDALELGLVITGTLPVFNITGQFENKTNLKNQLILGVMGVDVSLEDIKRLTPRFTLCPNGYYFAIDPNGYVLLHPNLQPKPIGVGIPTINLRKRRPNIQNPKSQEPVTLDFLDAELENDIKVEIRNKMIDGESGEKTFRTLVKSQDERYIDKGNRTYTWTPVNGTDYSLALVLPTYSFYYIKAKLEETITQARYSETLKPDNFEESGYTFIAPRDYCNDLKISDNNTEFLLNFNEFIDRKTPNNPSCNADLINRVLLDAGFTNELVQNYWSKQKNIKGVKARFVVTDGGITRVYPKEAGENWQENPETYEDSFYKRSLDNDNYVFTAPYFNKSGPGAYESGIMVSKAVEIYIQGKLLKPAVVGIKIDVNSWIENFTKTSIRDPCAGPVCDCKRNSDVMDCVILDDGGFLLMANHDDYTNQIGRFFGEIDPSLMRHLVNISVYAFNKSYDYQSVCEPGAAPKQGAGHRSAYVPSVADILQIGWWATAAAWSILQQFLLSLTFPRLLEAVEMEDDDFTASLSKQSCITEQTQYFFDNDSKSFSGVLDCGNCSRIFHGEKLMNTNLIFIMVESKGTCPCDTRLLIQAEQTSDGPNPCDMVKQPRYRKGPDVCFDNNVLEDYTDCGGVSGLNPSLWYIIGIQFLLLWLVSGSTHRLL

Sequence of Human μ-opioid receptor (P35372 whole entry): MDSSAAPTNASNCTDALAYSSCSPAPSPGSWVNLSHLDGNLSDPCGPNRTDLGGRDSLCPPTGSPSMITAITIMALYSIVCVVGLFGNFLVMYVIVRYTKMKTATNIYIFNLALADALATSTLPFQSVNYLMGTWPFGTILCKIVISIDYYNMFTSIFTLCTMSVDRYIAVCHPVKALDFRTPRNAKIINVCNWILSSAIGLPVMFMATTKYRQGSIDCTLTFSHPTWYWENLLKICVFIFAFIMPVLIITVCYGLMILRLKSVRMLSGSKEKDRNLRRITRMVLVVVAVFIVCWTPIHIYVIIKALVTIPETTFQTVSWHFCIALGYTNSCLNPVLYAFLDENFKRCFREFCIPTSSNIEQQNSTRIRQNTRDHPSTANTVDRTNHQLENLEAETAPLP

Take `CCC[C@H](c1nc2ccc(C(NC)c3ccccc3)cc2c(=O)n1CC)N1C[C@@H](C)N[C@@H](C)C1` (stereo partly drawn) [Example 236, 2-((R)-1-((3S,5R)-3,5-Dimethylpiperazin-1-yl)butyl)-3-ethyl-6-((methylamino)(phenyl)methyl)quinazolin-4(3H)-one]: the figures for the Ki in test [1] and in test [2] were more than 500 nM and less than 500 nM, respectively.
The corresponding values for `CCC[C@@H](c1nc2ccccc2c(=O)n1CCOC)N1C[C@@H](C)N[C@@H](C)C1` [Example 124, 2-((S)-1-((3S,5R)-3,5-dimethylpiperazin-1-yl)butyl)-3-(2-methoxyethyl)quinazolin-4(3H)-one] are more than 500 nM and 500 to 5000 nM.
The matching figures for `CCC[C@@H](c1nc2cc(F)c(Br)cc2c(=O)n1CC)N1CCN[C@H](C)C1` [Example 209, 6-bromo-3-ethyl-7-fluoro-2-((S)-1-((R)-3-methylpiperazin-1-yl)butyl)quinazolin-4(3H)-one]: 100 to 500 nM and less than 500 nM.
Take `CCC[C@H](c1nc2ccc(N3C[C@H](C)OC4(CCN(CCc5ccccc5)CC4)C3)cc2c(=O)n1CC)N1C[C@@H](C)N[C@@H](C)C1` [Example 156, 2-((R)-1-((3S,5R)-3,5-dimethylpiperazin-1-yl)butyl)-3-ethyl-6-((S)-2-methyl-9-phenethyl-1-oxa-4,9-diazaspiro[5.5]undecan-4-yl)quinazolin-4(3H)-one]: the Ki in test [1] was more than 500 nM; in test [2] (binding to α2δ-1 subunit of voltage-gated calcium channels expressed as Ki, + also Ki>5000 nM or inhibition between 1% and 50%, read-out: α2δ-1 binding) it was 500 to 5000 nM.
Regarding `CCC[C@H](c1nc2ccc(Br)cc2c(=O)n1CC)N1CCNC(C)(C)C1` [Example 224, (R)-6-bromo-2-(1-(3,3-dimethylpiperazin-1-yl)butyl)-3-ethylquinazolin-4(3H)-one], the Ki was less than 100 nM in test [1] and more than 5000 nM in test [2].
For the compound `CCC[C@H](c1nc2c(F)cc(F)cc2c(=O)n1C)N1CCN[C@@H](C)C1` [Example 225, 6,8-difluoro-3-methyl-2-((R)-1-((S)-3-methylpiperazin-1-yl)butyl)quinazolin-4(3H)-one], the Ki was 100 to 500 nM in test [1] and 500 to 5000 nM in test [2].
The matching figures for `CCCC(c1nc2cc(C)c(Br)cc2c(=O)n1CC)N1CCNCC1` (centres unmarked) [Example 85, 6-bromo-3-ethyl-7-methyl-2-(1-(piperazin-1-yl)butyl)quinazolin-4(3H)-one]: more than 500 nM and less than 500 nM.
The matching figures for `CCC[C@H](c1nc2ccc(Cl)cc2c(=O)n1CC)N1CCN[C@@H](C)C1` [Example 103, 6-Chloro-3-ethyl-2-((R)-1-((S)-3-methylpiperazin-1-yl)butyl)quinazolin-4(3H)-one]: less than 100 nM and less than 500 nM.
The corresponding values for `CCC[C@H](c1nc2ccc(OC)cc2c(=O)n1CC)N1CCN[C@H](C)C1` [Example 211, 3-ethyl-6-methoxy-2-((R)-1-((R)-3-methylpiperazin-1-yl)butyl)quinazolin-4(3H)-one] are more than 500 nM and less than 500 nM.
Take `CCCC(c1nc2c(C)cc(Br)cc2c(=O)n1CC)N1CCNCC1` (centres unmarked) [Example 89, 6-bromo-3-ethyl-8-methyl-2-(1-(piperazin-1-yl)butyl)quinazolin-4(3H)-one]: the Ki in test [1] was less than 100 nM; in test [2], more than 5000 nM.
As to `CCC[C@H](c1nc2ccc(OC)cc2c(=O)n1CC)N1CCN[C@@H](C)C1` [Example 215, 3-ethyl-6-methoxy-2-((R)-1-((S)-3-methylpiperazin-1-yl)butyl)quinazolin-4(3H)-one], the Ki in test [1] was more than 500 nM; in test [2], less than 500 nM.
The matching figures for `CCCC(c1nc2cc(C)ccc2c(=O)n1CC)N1C[C@@H](C)N[C@@H](C)C1` (stereo partly drawn) [Example 4, 2-(1-((3S,5R)-3,5-dimethylpiperazin-1-yl)butyl)-3-ethyl-7-methylquinazolin-4(3H)-one]: more than 500 nM and less than 500 nM.
For `CCC[C@@H](c1nc2ccc(Br)cc2c(=O)n1CC)N1CCN[C@@H](C)C1` [Example 99, 6-bromo-3-ethyl-2-((S)-1-((S)-3-methylpiperazin-1-yl)butyl)quinazolin-4(3H)-one], the Ki in test [1] is more than 500 nM; in test [2], less than 500 nM.
The corresponding values for `CCC[C@@H](c1nc2cc(Cl)c(Cl)cc2c(=O)n1CC)N1CCN[C@@H](C)C1` [Example 50, 6,7-dichloro-3-ethyl-2-((S)-1-((S)-3-methylpiperazin-1-yl)butyl)quinazolin-4(3H)-one] are more than 500 nM and more than 5000 nM.
Consider `CCCC(c1nc2cnccc2c(=O)n1CCOC)N1C[C@@H](C)N[C@@H](C)C1` (stereo partly drawn) [Example 121, 2-(1-((3S,5R)-3,5-dimethylpiperazin-1-yl)butyl)-3-(2-methoxyethyl)pyrido[3,4-d]pyrimidin-4(3H)-one], for which the Ki was more than 500 nM in test [1] and less than 500 nM in test [2].
Take `CCCC(C1=CCNCC1)c1nc2ccc(Br)cc2c(=O)n1CC` (centres unmarked) [Example 188, 6-bromo-3-ethyl-2-(1-(1,2,3,6-tetrahydropyridin-4-yl)butyl)quinazolin-4(3H)-one]: the Ki in test [1] (read-out: μ-binding) was more than 500 nM; in test [2] (read-out: α2δ-1 binding), 500 to 5000 nM.
Take `CCCC(c1nc2c(Br)cccc2c(=O)n1CC)N1C[C@@H](C)N[C@@H](C)C1` (stereo partly drawn) [Example 13, 8-bromo-2-(1-((3S,5R)-3,5-dimethylpiperazin-1-yl)butyl)-3-ethylquinazolin-4(3H)-one]: the Ki in test [1] (read-out: μ-binding) was more than 500 nM; in test [2], more than 5000 nM.
As to `CCC[C@@H](c1nc2ccc(Br)cc2c(=O)n1CC)N1CCN(C)[C@H](C)C1` [Example 110, 6-bromo-2-((S)-1-((R)-3,4-dimethylpiperazin-1-yl)butyl)-3-ethylquinazolin-4(3H)-one], the Ki in test [1] is more than 500 nM; in test [2] it was more than 5000 nM.
Consider `CCC[C@H](c1nc2ccc(Br)cc2c(=O)n1CC)[C@H]1CCNCC1(F)F` [Example 196, 6-bromo-2-((S)-1-((R)-3,3-difluoropiperidin-4-yl)butyl)-3-ethylquinazolin-4(3H)-one], for which the Ki in test [1] is more than 500 nM; in test [2], more than 5000 nM.
The matching figures for `CCC[C@H](c1nc2ncc(Br)cc2c(=O)n1CC1CC1)N1CCN[C@@H](C)C1` [Example 75, 6-bromo-3-(cyclopropylmethyl)-2-((R)-1-((S)-3-methylpiperazin-1-yl)butyl)pyrido[2,3-d]pyrimidin-4(3H)-one]: more than 500 nM and less than 500 nM.
The matching figures for `CCC[C@H](c1nc2ccc(Br)cc2c(=O)n1CC)N1C[C@@H](C)N[C@@H](C)C1` [Example 29, 6-bromo-2-((R)-1-((3S,5R)-3,5-dimethylpiperazin-1-yl)butyl)-3-ethylquinazolin-4(3H)-one]: more than 500 nM and less than 500 nM.
The corresponding values for `CCCC(c1nc2cc(-c3ccncc3)ccc2c(=O)n1CC)N1C[C@@H](C)N[C@@H](C)C1` (stereo partly drawn) [Example 133, 2-(1-((3S,5R)-3,5-dimethylpiperazin-1-yl)butyl)-3-ethyl-7-(pyridin-4-yl)quinazolin-4(3H)-one] are more than 500 nM and less than 500 nM.
Regarding `CCC[C@@H](c1nc2ccc(Br)cc2c(=O)n1CC)N1CCN[C@@H](COC)C1` [Example 220, 6-bromo-3-ethyl-2-((S)-1-((R)-3-(methoxymethyl)piperazin-1-yl)butyl)quinazolin-4(3H)-one], the Ki is more than 500 nM in test [1] and more than 5000 nM in test [2].
The matching figures for `CCC[C@H](c1nc2cc(O[C@@H](CNC)c3ccccc3)ccc2c(=O)n1C)N1C[C@@H](C)N[C@@H](C)C1` [Example 169, 2-((R)-1-((3S,5R)-3,5-dimethylpiperazin-1-yl)butyl)-3-methyl-7-((R)-2-(methylamino)-1-phenylethoxy)quinazolin-4(3H)-one]: more than 500 nM and 500 to 5000 nM.
The matching figures for `CCC[C@H](c1nc2ncc(Br)cc2c(=O)n1CC)N1CCN[C@@H](C)C1` [Example 68, 6-Bromo-3-ethyl-2-((R)-1-((S)-3-methylpiperazin-1-yl)butyl)pyrido[2,3-d]pyrimidin-4(3H)-one]: more than 500 nM and less than 500 nM.
On to `CCC[C@@H](c1nc2cc(F)c(Br)cc2c(=O)n1CC)N1CCN[C@@H](C)C1` [Example 105, 6-Bromo-3-ethyl-7-fluoro-2-((S)-1-((S)-3-methylpiperazin-1-yl)butyl)quinazolin-4(3H)-one], for which the Ki in test [1] was more than 500 nM; in test [2] it was less than 500 nM.
The corresponding values for `CCCC(c1nc2cc(NCCNC)ccc2c(=O)n1CC)N1C[C@@H](C)N[C@@H](C)C1` (stereo partly drawn) [Example 147, 2-(1-((3S,5R)-3,5-dimethylpiperazin-1-yl)butyl)-3-ethyl-7-((2-(methylamino)ethyl)amino)quinazolin-4(3H)-one] are more than 500 nM and less than 500 nM.
The matching figures for `CCCC(c1nc2cc(CN3CCN(C)CC3)ccc2c(=O)n1C)N1C[C@@H](C)N[C@@H](C)C1` (stereo partly drawn) [Example 186, 2-(1-((3S,5R)-3,5-dimethylpiperazin-1-yl)butyl)-3-methyl-7-((4-methylpiperazin-1-yl)methyl)quinazolin-4(3H)-one]: more than 500 nM and less than 500 nM.
Consider `CCC[C@H](c1nc2ccc(Br)cc2c(=O)n1CC)N1CCN[C@@H](CCC(=O)O)C1` [Example 108, 3-((S)-4-((R)-1-(6-bromo-3-ethyl-4-oxo-3,4-dihydroquinazolin-2-yl)butyl)piperazin-2-yl)propanoic acid], for which the results for the Ki in test [1] (read-out: μ-binding) and in test [2] (read-out: α2δ-1 binding) were more than 500 nM and more than 5000 nM, respectively.
As for `CCC[C@H](c1nc2ncc(Br)cc2c(=O)n1CCC)N1CCN[C@@H](C)C1` [Example 72, 6-Bromo-2-((R)-1-((S)-3-methylpiperazin-1-yl)butyl)-3-propylpyrido[2,3-d]pyrimidin-4(3H)-one], the Ki is more than 500 nM in test [1] and less than 500 nM in test [2].
The corresponding values for `CCC[C@H](c1nc2cc(F)c(OC)cc2c(=O)n1CC)N1CCN[C@H](C)C1` [Example 210, 3-ethyl-7-fluoro-6-methoxy-2-((R)-1-((R)-3-methylpiperazin-1-yl)butyl)quinazolin-4(3H)-one] are more than 500 nM and less than 500 nM.
